The source of these data is patent US20230391826A1, “COMPOSITIONS AND METHODS FOR TREATING DISEASES” (Sanford Burnham Prebys Medical Discovery Institute, priority 2020, published 2023).

In this experiment the target is EphA2 (Homo sapiens, UniProt P29317). Briefly: Bias factor βlig (pY588 versus pAKT inhibition, PC3 cells, reference ephrinA1-Fc). The arrangement: EphA2 is the prevalent endogenously expressed EphA receptor in these cells; endogenous in cells; host or cells: PC3 prostate cancer cells. The format is cell-based. On the procedure: FIG. 6 illustrates an example where Ligands can bias EphA2 signaling responses. The bias factor βlig was calculated for the indicated ligands using ephrinA1-Fc as the reference ligand. Statistical significance for the comparison of the different ligands with the reference ligand ephrinA1-Fc (βlig=0) was determined by one sample t test; *, P<0.05; **, P<0.01; ***, P<0.001; ****, P<0.0001.
FIG. 14A-14E illustrates an example where distinct factors are responsible for EphA2 biased signaling induced by different ligands. (FIG. 14A) Etop values for EphA2 Y588 phosphorylation, as in FIG. 2C. (FIG. 14B) Etop values for inhibition of AKT phosphorylation. (FIG. 14C) Graph of the ratios of the Etop values for EphA2 Y588 phosphorylation and inhibition of AKT phosphorylation, which are used in the βlig calculation. (FIG. 14D) Graph of the ratios of the EC50 values for EphA2 Y588 phosphorylation and inhibition of AKT phosphorylation, which are used in the βlig calculation. (FIG. 14E) Equation used to calculate the bias factor βlig for each ligand. The terms of the equation are rearranged, compared to equation (1) in the Materials and Methods, to better conform to the graphs in FIG. 14A-14D. **, P<0.01; ***, P<0.001; ****, P<0.0001; ns, not significant for the comparison with ephrinA1-Fc by one-way ANOVA and Dunnett's posthoc test.
The possibility of EphA2 biased signaling by analyzing the dose-response curves obtained with endogenous EphA2 in PC3 cells (FIG. 2A) was explored using approaches developed for GPCRs. This involves using EphA2 Y588 phosphorylation and AKT phosphorylation quantified as a function of ligand concentration to determine and compare the potency (EC50) and efficacy (Etop) for the two responses induced by different ligands. Remarkably, large differences among the ligands in the Etop values for Y588 phosphorylation (FIGS. 2C, 2D and 14A), but not in the Etop values for AKT inhibition (FIGS. 2E and 14B), were observed. In terms of relative efficacies for pY588 and pAKT inhibition, the C-terminally linked dimers and monomeric ligands behave differently from ephrinA1-Fc, while the N-terminally linked dimers and the head-to-tail dimer (8) are similar to ephrinA1-Fc (FIG. 14C). […] Thus, the type of linkage affects EphA2 signaling properties induced by the dimeric peptides.
The determined EC50 and Etop values allowed us to calculate the bias factor βlig for the two different responses induced by the various ligands relative to ephrinA1-Fc as the reference ligand (FIG. 14E). […] Remarkably, the bias originates from different mechanisms that depend on the class of ligands, with the N-terminally linked and head-to-tail dimers modulating relative potencies and the C-terminally-linked dimers and monomers modulating relative efficacies.

EphA2, sequence (P29317 24-976): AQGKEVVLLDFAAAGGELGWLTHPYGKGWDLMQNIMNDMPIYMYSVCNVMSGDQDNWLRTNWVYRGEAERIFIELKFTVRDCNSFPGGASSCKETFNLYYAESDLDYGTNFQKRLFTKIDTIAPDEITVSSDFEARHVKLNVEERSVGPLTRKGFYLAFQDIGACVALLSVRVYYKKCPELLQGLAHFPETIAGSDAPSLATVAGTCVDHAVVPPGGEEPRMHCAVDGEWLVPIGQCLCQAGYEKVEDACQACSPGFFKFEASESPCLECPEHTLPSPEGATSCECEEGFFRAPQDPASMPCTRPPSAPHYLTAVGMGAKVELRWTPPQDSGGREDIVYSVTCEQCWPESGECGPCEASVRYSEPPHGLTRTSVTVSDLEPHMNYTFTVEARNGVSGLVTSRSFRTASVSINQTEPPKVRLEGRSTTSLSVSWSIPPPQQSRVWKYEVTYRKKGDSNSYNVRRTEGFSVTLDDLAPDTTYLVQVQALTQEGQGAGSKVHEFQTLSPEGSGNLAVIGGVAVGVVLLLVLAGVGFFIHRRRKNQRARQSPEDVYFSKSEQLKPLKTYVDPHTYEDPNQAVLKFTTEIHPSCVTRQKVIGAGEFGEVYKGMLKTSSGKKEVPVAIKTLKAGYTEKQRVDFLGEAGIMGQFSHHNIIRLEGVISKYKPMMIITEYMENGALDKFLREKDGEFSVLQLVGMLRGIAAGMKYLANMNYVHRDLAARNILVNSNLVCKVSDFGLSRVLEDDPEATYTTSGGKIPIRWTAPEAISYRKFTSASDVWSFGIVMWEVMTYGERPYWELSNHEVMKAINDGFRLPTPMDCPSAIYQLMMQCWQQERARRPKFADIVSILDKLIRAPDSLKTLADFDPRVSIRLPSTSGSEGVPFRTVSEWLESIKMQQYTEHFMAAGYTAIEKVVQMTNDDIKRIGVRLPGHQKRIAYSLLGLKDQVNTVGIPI

`CC(C)C[C@H](NC(=O)[C@H](Cc1c[nH]c2ccccc12)NC(=O)[C@H](C)NC(=O)CNC(=O)[C@@H](N)CSSC[C@H](N)C(=O)NCC(=O)N[C@@H](C)C(=O)N[C@@H](Cc1c[nH]c2ccccc12)C(=O)N[C@@H](CC(C)C)C(=O)N[C@@H](C)C(=O)N[C@@H](Cc1ccc(O)cc1)C(=O)N1CCC[C@H]1C(=O)N[C@@H](CC(=O)O)C(=O)N[C@@H](CO)C(=O)N[C@H](C(=O)N1CCC[C@H]1C(=O)N[C@@H](Cc1ccc(O)cc1)C(=O)N[C@@H](CCCNC(=N)N)C(=O)N1CCC[C@H]1C(=O)N[C@@H](CCCCN)C(=O)O)C(C)C)C(=O)N[C@@H](C)C(=O)N[C@@H](Cc1ccc(O)cc1)C(=O)N1CCC[C@H]1C(=O)N[C@@H](CC(=O)O)C(=O)N[C@@H](CO)C(=O)N[C@H](C(=O)N1CCC[C@H]1C(=O)N[C@@H](Cc1ccc(O)cc1)C(=O)N[C@@H](CCCNC(=N)N)C(=O)N1CCC[C@H]1C(=O)N[C@@H](CCCCN)C(=O)O)C(C)C` [compound 5, CGA-WLA-YRPK dimer (N-ter)]: the “βu (bias factor βlig)” value (Table 3, reference ligand ephrinA1-Fc (βlig=0)) is 066 ± 0.12. Also, the Blig (bias factor, reference ligand ephrinA1Fc) is reported as 0.81 ± 0.09.
